Measured values from PubChem BioAssay AID248 (DTP/NCI, 2004).
“And” between values parts separate entries of the source, which are not always exact repeats. Equal entries are not always repeated. Inconclusive results and toxic doses are left out.

Test system: L1210 leukemia ip in BDF1 mice, survival T/C
Assay: NCI In Vivo Anticancer Drug Screen. Data for tumor model L1210 Leukemia (intraperitoneal) in B6D2F1 (BDF1) mice
Conditions: endpoint: mean survival time, higher = longer survival
Procedure, shortened: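 Survival endpoint. Drug-treated group vs vehicle group, expressed as T divided by C. Tumor passaged by transplantation.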

[1] = dose: 100.0 mg/kg/injection, schedule: Q01DX001 (ip), vehicle: saline
[2] = dose: 200.0 mg/kg/injection, schedule: Q01DX001 (ip), vehicle: saline
[3] = dose: 400.0 mg/kg/injection, schedule: Q01DX001 (ip), vehicle: saline
[4] = dose: 100.0 mg/kg/injection, schedule: Q04DX003 (ip), vehicle: saline
[5] = dose: 200.0 mg/kg/injection, schedule: Q04DX003 (ip), vehicle: saline
[6] = dose: 400.0 mg/kg/injection, schedule: Q04DX003 (ip), vehicle: saline
[7] = dose: 25.0 mg/kg/injection, schedule: Q04DX003 (ip), vehicle: saline
[8] = dose: 50.0 mg/kg/injection, schedule: Q04DX003 (ip), vehicle: saline
[9] = dose: 100.0 mg/kg/injection, schedule: Q04DX003 (ip), vehicle: other
[10] = dose: 200.0 mg/kg/injection, schedule: Q04DX003 (ip), vehicle: other
[11] = dose: 400.0 mg/kg/injection, schedule: Q04DX003 (ip), vehicle: other
[12] = dose: 100.0 mg/kg/injection, schedule: Q01DX001 (ip), vehicle: Klucel (hydroxypropylcellulose) (HPC)
[13] = dose: 200.0 mg/kg/injection, schedule: Q01DX001 (ip), vehicle: Klucel (hydroxypropylcellulose) (HPC)
[14] = dose: 400.0 mg/kg/injection, schedule: Q01DX001 (ip), vehicle: Klucel (hydroxypropylcellulose) (HPC)
[15] = dose: 100.0 mg/kg/injection, schedule: Q01DX009 (ip), vehicle: saline with Tween-80
[16] = dose: 200.0 mg/kg/injection, schedule: Q01DX009 (ip), vehicle: saline with Tween-80
[17] = dose: 400.0 mg/kg/injection, schedule: Q01DX009 (ip), vehicle: saline with Tween-80
[18] = dose: 100.0 mg/kg/injection, schedule: Q01DX009 (ip), vehicle: Klucel (hydroxypropylcellulose) (HPC)
[19] = dose: 100.0 mg/kg/injection, schedule: Q04DX003 (ip), vehicle: Klucel (hydroxypropylcellulose) (HPC)
[20] = dose: 200.0 mg/kg/injection, schedule: Q04DX003 (ip), vehicle: Klucel (hydroxypropylcellulose) (HPC)
[21] = dose: 400.0 mg/kg/injection, schedule: Q04DX003 (ip), vehicle: Klucel (hydroxypropylcellulose) (HPC)

O=c1c(N=Nc2ccc(Br)cc2)c(O)n(-c2ccccc2Cl)c(=S)n1-c1ccccc1
T/C (dose: 75.0 mg/kg/injection, schedule: Q01DX001 (ip), vehicle: Klucel (hydroxypropylcellulose) (HPC)): 90 % of control | T/C (dose: 150.0 mg/kg/injection, schedule: Q01DX001 (ip), vehicle: Klucel (hydroxypropylcellulose) (HPC)): 101 % of control

CCOC(=O)C1=NN(c2ccccc2)C(=O)C1N=Nc1ccc(S(=O)(=O)Nc2nnc(C)s2)cc1 (stereo unspecified)
T/C [1]: 110 % of control | T/C [2]: 105 % of control | T/C [3]: 98 % of control

c1ccc2cc(NCNc3ccc4ccccc4c3)ccc2c1
T/C [1]: 100 % of control | T/C [2]: 95 % of control | T/C [3]: 100 % of control

Nc1c(Cl)ccc2c(Cl)ccnc12
T/C [1]: 111 % of control | T/C (dose: 150.0 mg/kg/injection, schedule: Q04DX003 (ip), vehicle: other): 89 % of control | T/C [2]: 98 % of control | T/C (dose: 300.0 mg/kg/injection, schedule: Q04DX003 (ip), vehicle: other): 97 % of control | T/C [3]: 104 % of control

CC(CS(=O)(=O)O)N1CCN(CCO)CC1 (stereo unspecified)
T/C (dose: 100.0 mg/kg/injection, schedule: Q01DX009 (ip), vehicle: saline): 101 % of control | T/C [4]: 108 % of control | T/C (dose: 200.0 mg/kg/injection, schedule: Q01DX009 (ip), vehicle: saline): 96 % of control | T/C [5]: 103 % of control | T/C (dose: 400.0 mg/kg/injection, schedule: Q01DX009 (ip), vehicle: saline): 96 % of control | T/C [6]: 94 % of control

Cc1cc[n+](C)c2ccccc12
T/C (dose: 9.37 mg/kg/injection, schedule: Q01DX009 (ip), vehicle: saline with Tween-80): 101 % of control | T/C (dose: 18.75 mg/kg/injection, schedule: Q01DX009 (ip), vehicle: saline with Tween-80): 112 % of control | T/C (dose: 37.5 mg/kg/injection, schedule: Q01DX009 (ip), vehicle: saline with Tween-80): 100 % of control | T/C (dose: 37.5 mg/kg/injection, schedule: Q04DX003 (ip), vehicle: saline): 100 % of control | T/C (dose: 75.0 mg/kg/injection, schedule: Q01DX001 (ip), vehicle: saline): 103 % of control

O=C(O)COc1ccc(Cl)cc1Cl (tested in a mixture with another compound)
T/C [7]: 102 % of control | T/C [8]: 98 % of control | T/C (dose: 100.0 mg/kg/injection, schedule: Q01DX001 (ip), vehicle: carboxymethylcellulose (CMC)): 93 % of control | T/C [9]: 90 % of control | T/C [10]: 95 % of control | T/C [11]: 115 % of control

Cc1ccc(NC(=O)N2CC2C)cc1NC(=O)N1CC1C (stereo unspecified)
T/C (dose: 2.5 mg/kg/injection, schedule: Q01DX009 (ip), vehicle: saline): 118 % of control | T/C (dose: 20.0 mg/kg/injection, schedule: Q01DX009 (ip), vehicle: saline): 197 % of control

C[n+]1c(/C=C/c2ccc3cccc(O)c3n2)ccc2cccc(O)c21
T/C (dose: 12.5 mg/kg/injection, schedule: Q01DX001 (ip), vehicle: saline): 100 % of control | T/C (dose: 12.5 mg/kg/injection, schedule: Q01DX009 (ip), vehicle: saline with Tween-80): 106 % of control | T/C (dose: 12.5 mg/kg/injection, schedule: Q04DX003 (ip), vehicle: saline): 96 % of control | T/C (dose: 25.0 mg/kg/injection, schedule: Q01DX001 (ip), vehicle: saline): 107 % of control | T/C (dose: 25.0 mg/kg/injection, schedule: Q01DX009 (ip), vehicle: saline with Tween-80): 95 % of control | T/C [7]: 97 % of control | T/C (dose: 50.0 mg/kg/injection, schedule: Q01DX001 (ip), vehicle: saline): 102 % of control | T/C [8]: 96 % of control

O=C(c1ccccc1)N1CC1(c1ccccc1)C1(c2ccccc2)SCCCS1 (stereo unspecified)
T/C [12]: 95 % of control | T/C [13]: 98 % of control | T/C [14]: 92 % of control

CCC(C)C1NC(=O)C2C(CCN2C(=O)C(NC(=O)C(Cc2ccccc2)N(C)C)C(C)CC)Oc2ccc(cc2)/C=C\NC1=O (stereo unspecified)
T/C [4]: 94 % of control | T/C [5]: 97 % of control | T/C [6]: 92 % of control

CC(=O)Nc1c(C)cc(Cl)cc1Cl
T/C (dose: 25.6 mg/kg/injection, schedule: Q04DX002 (ip), vehicle: saline with Tween-80): 95 % of control | T/C (dose: 64.0 mg/kg/injection, schedule: Q04DX002 (ip), vehicle: saline with Tween-80): 95 % of control | T/C [15]: 91 % of control | T/C (dose: 100.0 mg/kg/injection, schedule: Q04DX003 (ip), vehicle: saline with Tween-80): 91 % of control | T/C (dose: 160.0 mg/kg/injection, schedule: Q04DX002 (ip), vehicle: saline with Tween-80): 95 % of control | T/C [16]: 89 % of control | T/C (dose: 200.0 mg/kg/injection, schedule: Q04DX003 (ip), vehicle: saline with Tween-80): 95 % of control | T/C [17]: 96 % of control | T/C (dose: 400.0 mg/kg/injection, schedule: Q04DX002 (ip), vehicle: saline with Tween-80): 98 % of control | T/C (dose: 400.0 mg/kg/injection, schedule: Q04DX003 (ip), vehicle: saline with Tween-80): 98 % of control

Cc1ccc(S(=O)(=O)N=[N+]=[N-])cc1
T/C [12]: 95 % of control | T/C [18]: 107 % of control | T/C [19]: 95 % of control | T/C [13]: 105 % of control | T/C (dose: 200.0 mg/kg/injection, schedule: Q01DX009 (ip), vehicle: Klucel (hydroxypropylcellulose) (HPC)): 107 % of control | T/C [20]: 104 % of control | T/C [14]: 100 % of control | T/C (dose: 400.0 mg/kg/injection, schedule: Q01DX009 (ip), vehicle: Klucel (hydroxypropylcellulose) (HPC)): 105 % of control | T/C [21]: 107 % of control

Nc1nc2nc(-c3ccccc3)[nH]c2c(=O)[nH]1
T/C [19]: 98 % of control | T/C [20]: 101 % of control | T/C [21]: 93 % of control

Cc1c2cnccc2c(C)c2c1c1ccccc1n2CCCCl
T/C [12]: 102 % of control | T/C [19]: 96 % of control | T/C [13]: 96 % of control | T/C [20]: 94 % of control | T/C [14]: 94 % of control | T/C [21]: 96 % of control

COC(=O)c1cc2nc(C(C)C)n(Cc3ccccc3)c2cc1C(=O)OC
T/C (dose: 100.0 mg/kg/injection, schedule: Q01DX001 (ip), vehicle: other): 99 % of control | T/C (dose: 100.0 mg/kg/injection, schedule: Q01DX009 (ip), vehicle: other): 104 % of control and 87 % of control | T/C (dose: 100.0 mg/kg/injection, schedule: Q04DX002 (ip), vehicle: Klucel (hydroxypropylcellulose) (HPC)): 105 % of control | T/C (dose: 100.0 mg/kg/injection, schedule: Q04DX002 (ip), vehicle: other): 102 % of control and 91 % of control | T/C [9]: 107 % of control | T/C (dose: 200.0 mg/kg/injection, schedule: Q01DX001 (ip), vehicle: other): 100 % of control | T/C (dose: 200.0 mg/kg/injection, schedule: Q01DX009 (ip), vehicle: other): 101 % of control and 90 % of control | T/C (dose: 200.0 mg/kg/injection, schedule: Q04DX002 (ip), vehicle: Klucel (hydroxypropylcellulose) (HPC)): 98 % of control | T/C (dose: 200.0 mg/kg/injection, schedule: Q04DX002 (ip), vehicle: other): 95 % of control and 108 % of control | T/C [10]: 109 % of control | T/C (dose: 400.0 mg/kg/injection, schedule: Q01DX001 (ip), vehicle: other): 89 % of control | T/C (dose: 400.0 mg/kg/injection, schedule: Q01DX009 (ip), vehicle: other): 97 % of control and 106 % of control | T/C (dose: 400.0 mg/kg/injection, schedule: Q04DX002 (ip), vehicle: Klucel (hydroxypropylcellulose) (HPC)): 102 % of control | T/C (dose: 400.0 mg/kg/injection, schedule: Q04DX002 (ip), vehicle: other): 95 % of control and 107 % of control | T/C [11]: 105 % of control

OC(Cc1cnc2ccccc2n1)C(Cl)(Cl)Cl (stereo unspecified)
T/C [15]: 102 % of control | T/C [19]: 90 % of control | T/C [16]: 97 % of control | T/C [20]: 95 % of control | T/C [17]: 94 % of control | T/C [21]: 108 % of control

CN1c2ccc(Cl)cc2C2(C(=O)NN)C(C(=O)NN)N(C3CCCCC3)C(=O)C12N (stereo unspecified)
T/C [15]: 97 % of control | T/C [16]: 107 % of control

COc1ccc(Cl)cc1N1C(=O)C2C(C1=O)C1(Cl)C(Cl)=C(Cl)C2(Cl)C1(Cl)Cl (stereo unspecified)
T/C (dose: 50.0 mg/kg/injection, schedule: Q01DX009 (ip), vehicle: Klucel (hydroxypropylcellulose) (HPC)): 91 % of control | T/C [18]: 101 % of control | T/C [19]: 98 % of control | T/C [20]: 98 % of control
